Patent US20100267561A1, “HERBICIDAL PYRIDAZINONE DERIVATIVES” (priority 2007, published 2010)

Experiments:
Experiment in all cases: Test B pre-/postemergence plant response
Type in all cases: in vivo
[1] = tested on: velvetleaf (Abutilon theophrasti); conditions: for Velvetleaf plant response rating: 8 g ai/ha
Summary of the method: (§1)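 Preemergence and postemergence (plants 2-18 cm, 1- to 4-leaf stage) applications used test chemicals in a non-phytotoxic solvent with surfactant. Plants were held in a greenhouse 13 to 15 days, then rated visually against controls on a 0-100 scale (0 no effect, 100 complete control).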

[2] = tested on: eastern black (E.B.) nightshade (Solanum ptycanthum); conditions: Preemergence
Summary of the method: as §1

[3] = tested on: woolly cupgrass (Eriochloa villosa); conditions: for Cupgrass, Woolly plant response rating: 8 g ai/ha
Summary of the method: as §1

[4] = tested on: Russian thistle (Salsola iberica); conditions: Preemergence
Summary of the method: as §1

corn (Zea mays) = conditions: for Corn plant response rating: 8 g ai/ha
Summary of the method: as §1

[5] = tested on: surinam grass (Brachiaria decumbens); conditions: for Surinam Grass plant response rating: 8 g ai/ha
Summary of the method: as §1

[6] = tested on: pigweed (Amaranthus retroflexus); conditions: for Pigweed plant response rating: 8 g ai/ha
Summary of the method: as §1

soybean (Glycine max) = conditions: for Soybean plant response rating: 8 g ai/ha
Summary of the method: as §1

[7] = tested on: Italian ryegrass (Lolium multiflorum); conditions: for Ryegrass, Italian plant response rating: 8 g ai/ha
Summary of the method: as §1

[8] = tested on: green foxtail (Setaria viridis); conditions: for Foxtail, Green plant response rating: 8 g ai/ha
Summary of the method: as §1

[9] = tested on: bermudagrass (Cynodon dactylon); conditions: for Bermudagrass plant response rating: 8 g ai/ha
Summary of the method: as §1

[10] = tested on: morningglory (Ipomoea coccinea); conditions: for Morningglory plant response rating: 8 g ai/ha
Summary of the method: as §1

kochia (Kochia scoparia) = conditions: for Kochia plant response rating: 8 g ai/ha
Summary of the method: as §1

[11] = tested on: downy bromegrass (Bromus tectorum); conditions: for Bromegrass, Downy plant response rating: 8 g ai/ha
Summary of the method: as §1

[12] = Postemergence, 16 g ai/ha, scale 0 to 100
[13] = Postemergence, 62 g ai/ha, scale 0 to 100, 0 no effect, 100 complete control
[14] = Preemergence, 16 g ai/ha, scale 0 to 100 (0 no effect, 100 complete control)
[15] = Preemergence, 31 g ai/ha, 0 to 100 scale, 0 no effect, 100 complete control
[16] = Preemergence, 62 g ai/ha, scale 0 to 100
[17] = 16 g ai/ha, scale 0 to 100 (0 no effect, 100 complete control)
[18] = 31 g ai/ha, 0 to 100 scale, 0 no effect, 100 complete control
[19] = Postemergence, 31 g ai/ha, scale 0 to 100, 0 no effect, 100 complete control

With `CCc1cc(-c2ccc(Cl)cc2)nn1-c1c(OS(C)(=O)=O)cnn(C)c1=O` [Compound 39] the “Velvetleaf plant response rating” value ([1]; postemergence, 0-100 scale) was 0, the “Plant response rating, Velvetleaf” value [1, 12] was 0 and the “Plant response rating, Velvetleaf” value [1, 13] was 0. For the same compound, the “Plant response rating, Velvetleaf” value [1, 14] was 0, the “Plant response rating, Velvetleaf” value [1, 15] was 0 and the “Plant response rating, Velvetleaf” value [1, 16] was 0. The “Velvetleaf plant response rating” value ([1]; Preemergence, scale 0 to 100) was 0, the “Plant response rating, Nightshade, E. B.” value [2, 17] was 0 and the “Plant response rating, Nightshade, E. B.” value [2, 18] was 0. The “Plant response rating, Nightshade, E. B.” value ([2]; 62 g ai/ha, scale 0 to 100) was 0, the “Nightshade, E. B. plant response rating” value ([2]; 8 g ai/ha, scale 0 to 100) was 0 and the “Cupgrass, Woolly plant response rating” value ([3]; postemergence, 0-100 scale) was 80. For the same compound, the “Plant response rating, Cupgrass, Woolly” value [3, 12] was 95, the “Plant response rating, Cupgrass, Woolly” value [3, 19] was 100 and the “Plant response rating, Cupgrass, Woolly” value [3, 13] was 100. For the same compound, the “Plant response rating, Cupgrass, Woolly” value [3, 14] was 65, the “Plant response rating, Cupgrass, Woolly” value [3, 15] was 95 and the “Plant response rating, Cupgrass, Woolly” value [3, 16] was 98. The “Cupgrass, Woolly plant response rating” value ([3]; Preemergence, scale 0 to 100) was 20, the “Plant response rating, Russian Thistle” value [4, 17] was 0 and the “Plant response rating, Russian Thistle” value [4, 18] was 0. The “Plant response rating, Russian Thistle” value ([4]; 62 g ai/ha, scale 0 to 100) was 0, the “Russian Thistle plant response rating” value ([4]; 8 g ai/ha, scale 0 to 100) was 0 and the “Corn plant response rating” value (corn (Zea mays); postemergence, 0-100 scale) was 0. For the same compound, the “Plant response rating, Corn” value (corn (Zea mays); [12]) was 85, the “Plant response rating, Corn” value (corn (Zea mays); [19]) was 98 and the “Plant response rating, Corn” value (corn (Zea mays); [13]) was 100. For the same compound, the “Plant response rating, Corn” value (corn (Zea mays); [14]) was 80, the “Plant response rating, Corn” value (corn (Zea mays); [15]) was 98 and the “Plant response rating, Corn” value (corn (Zea mays); [16]) was 100. For the same compound, the “Corn plant response rating” value (corn (Zea mays); Preemergence, scale 0 to 100) was 65, the “Surinam Grass plant response rating” value ([5]; postemergence, 0-100 scale) was 100 and the “Plant response rating, Surinam Grass” value [5, 12] was 100. The “Plant response rating, Surinam Grass” value [5, 13] was 100, the “Plant response rating, Surinam Grass” value [5, 14] was 95 and the “Plant response rating, Surinam Grass” value [5, 15] was 100. The “Plant response rating, Surinam Grass” value [5, 16] was 100, the “Surinam Grass plant response rating” value ([5]; Preemergence, scale 0 to 100) was 90 and the “Pigweed plant response rating” value ([6]; postemergence, 0-100 scale) was 0. For the same compound, the “Plant response rating, Pigweed” value [6, 12] was 0, the “Plant response rating, Pigweed” value [6, 19] was 0 and the “Plant response rating, Pigweed” value [6, 13] was 0. For the same compound, the “Plant response rating, Pigweed” value [6, 14] was 0, the “Plant response rating, Pigweed” value [6, 15] was 0 and the “Plant response rating, Pigweed” value [6, 16] was 0. For the same compound, the “Pigweed plant response rating” value ([6]; Preemergence, scale 0 to 100) was 0, the “Soybean plant response rating” value (soybean (Glycine max); postemergence, 0-100 scale) was 0 and the “Plant response rating, Soybean” value (soybean (Glycine max); [12]) was 0. The “Plant response rating, Soybean” value (soybean (Glycine max); [13]) was 0, the “Plant response rating, Soybean” value (soybean (Glycine max); [14]) was 0 and the “Plant response rating, Soybean” value (soybean (Glycine max); [15]) was 0. For the same compound, the “Plant response rating, Soybean” value (soybean (Glycine max); [16]) was 0, the “Soybean plant response rating” value (soybean (Glycine max); Preemergence, scale 0 to 100) was 0 and the “Ryegrass, Italian plant response rating” value ([7]; postemergence, 0-100 scale) was 30. The “Plant response rating, Ryegrass, Italian” value [7, 12] was 90, the “Plant response rating, Ryegrass, Italian” value [7, 19] was 95 and the “Plant response rating, Ryegrass, Italian” value [7, 13] was 100. The “Plant response rating, Ryegrass, Italian” value [7, 14] was 95, the “Plant response rating, Ryegrass, Italian” value [7, 15] was 100 and the “Plant response rating, Ryegrass, Italian” value [7, 16] was 100. For the same compound, the “Ryegrass, Italian plant response rating” value ([7]; Preemergence, scale 0 to 100) was 90, the “Foxtail, Green plant response rating” value ([8]; postemergence, 0-100 scale) was 30 and the “Plant response rating, Foxtail, Green” value [8, 12] was 80. For the same compound, the “Plant response rating, Foxtail, Green” value [8, 19] was 85, the “Plant response rating, Foxtail, Green” value [8, 13] was 100 and the “Plant response rating, Foxtail, Green” value [8, 14] was 100. For the same compound, the “Plant response rating, Foxtail, Green” value [8, 15] was 100, the “Plant response rating, Foxtail, Green” value [8, 16] was 100 and the “Foxtail, Green plant response rating” value ([8]; Preemergence, scale 0 to 100) was 80. For the same compound, the “Bermudagrass plant response rating” value ([9]; postemergence, 0-100 scale) was 0, the “Plant response rating, Bermudagrass” value [9, 12] was 60 and the “Plant response rating, Bermudagrass” value [9, 19] was 75. For the same compound, the “Plant response rating, Bermudagrass” value [9, 13] was 95, the “Bermudagrass plant response rating” value ([9]; Preemergence, scale 0 to 100 (0 no effect, 100 complete control)) was 0 and the “Plant response rating, Bermudagrass” value [9, 14] was 90. For the same compound, the “Plant response rating, Bermudagrass” value [9, 15] was 95, the “Plant response rating, Bermudagrass” value [9, 16] was 98 and the “Morningglory plant response rating” value ([10]; postemergence, 0-100 scale) was 0. For the same compound, the “Plant response rating, Morningglory” value [10, 12] was 0, the “Plant response rating, Morningglory” value [10, 19] was 0 and the “Plant response rating, Morningglory” value [10, 13] was 0. For the same compound, the “Plant response rating, Morningglory” value [10, 14] was 0, the “Plant response rating, Morningglory” value [10, 15] was 0 and the “Plant response rating, Morningglory” value [10, 16] was 0. For the same compound, the “Morningglory plant response rating” value ([10]; Preemergence, scale 0 to 100) was 0, the “Kochia plant response rating” value (kochia (Kochia scoparia); postemergence, 0-100 scale) was 0 and the “Plant response rating, Kochia” value (kochia (Kochia scoparia); [12]) was 0. For the same compound, the “Plant response rating, Kochia” value (kochia (Kochia scoparia); [19]) was 0, the “Plant response rating, Kochia” value (kochia (Kochia scoparia); [13]) was 0 and the “Plant response rating, Kochia” value (kochia (Kochia scoparia); [14]) was 0. The “Plant response rating, Kochia” value (kochia (Kochia scoparia); [15]) was 0, the “Plant response rating, Kochia” value (kochia (Kochia scoparia); [16]) was 0 and the “Kochia plant response rating” value (kochia (Kochia scoparia); Preemergence, scale 0 to 100) was 0. The “Bromegrass, Downy plant response rating” value ([11]; postemergence, 0-100 scale) was 5, the “Plant response rating, Bromegrass, Downy” value [11, 12] was 10 and the “Plant response rating, Bromegrass, Downy” value [11, 19] was 45. The “Plant response rating, Bromegrass, Downy” value [11, 13] was 80, the “Plant response rating, Bromegrass, Downy” value [11, 14] was 70 and the “Plant response rating, Bromegrass, Downy” value [11, 15] was 85. For the same compound, the “Plant response rating, Bromegrass, Downy” value [11, 16] was 85 and the “Bromegrass, Downy plant response rating” value ([11]; Preemergence, scale 0 to 100) was 0.
